Experimental data from patent publication US20170007608A1, “ACTIVATORS OF PYRUVATE KINASE M2 AND METHODS OF TREATING DISEASE” (AGIOS PHARMACEUTICALS, INC, priority 2011, published 2017).

What was measured:
PKM2 = PKM2 (Homo sapiens, UniProt P14618); experiment: PKM2 Assay Procedure (LDH/NADH-coupled, absorbance at 340 nm); type: biochemical; conditions: PKM2 activation
Protocol: B refers to an activator of PKM2 with an AC50 between 100 nM and 500 nM. C refers to an activator of PKM2 with an AC50 greater than 500 nM. AC50s described here in Tables 1 and 2 and FIGS. 1 and 2A-2D are measured according to the “PKM2 Assay Procedure” below.
• PKM2 stock enzyme solution was diluted in Reaction Buffer • 2 μL of compound was added into each well first, and then 180 μL of the Reaction Mix was added. • Reaction mixture with compound (without ADP) were incubated for 30 minutes at 4° C. • Plates were re-equilibrated to room temperature prior to adding 20 μL ADP to initiate the reaction. • Reaction progress was measured as changes in absorbance at 340 nm wavelength at room temperature (25° C.)

A549 cells = experiment: Growth inhibition (GI50) side-by-side in regular RPMI versus BME medium; type: cell-based; conditions: A549 cells treated for 72 hours
Protocol: FIGS. 9A-9F are graphs depicting the effect of various cytotoxic agents on A549 cell growth in BME.
Cells grown in BME media are not generally more sensitive to cytotoxic agents (FIGS. 9A-9F). A549 cells were grown in RPMI (FIG. 9A, 9B or 9C) or in BME (FIGS. 9D, 9E, and 9F). […] The effect of the PKM2 activators appears to by cytostatic (no induction of apoptosis).

PKM2, sequence (P14618 whole entry): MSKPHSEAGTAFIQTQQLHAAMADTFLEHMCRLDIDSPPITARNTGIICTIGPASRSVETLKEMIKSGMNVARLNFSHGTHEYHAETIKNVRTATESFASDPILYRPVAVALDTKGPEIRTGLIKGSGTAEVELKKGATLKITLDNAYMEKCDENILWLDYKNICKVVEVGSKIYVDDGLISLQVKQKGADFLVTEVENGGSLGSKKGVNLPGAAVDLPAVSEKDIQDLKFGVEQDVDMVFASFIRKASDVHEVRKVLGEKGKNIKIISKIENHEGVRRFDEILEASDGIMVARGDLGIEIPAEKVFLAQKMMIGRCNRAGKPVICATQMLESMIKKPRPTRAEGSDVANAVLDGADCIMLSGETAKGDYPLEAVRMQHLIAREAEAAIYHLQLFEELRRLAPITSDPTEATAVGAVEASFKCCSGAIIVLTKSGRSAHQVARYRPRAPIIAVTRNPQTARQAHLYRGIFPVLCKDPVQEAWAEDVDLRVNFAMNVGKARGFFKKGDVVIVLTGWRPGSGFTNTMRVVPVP

Row | Compound | AC50 (PKM2; Table 1) [nM] | other results
1 | O=S(=O)(c1ccc2c(c1)OCCO2)N1CCN(S(=O)(=O)c2c(F)cccc2F)CC1 | < 100 | 
2 | Cc1cc2c(s1)c1cnn(Cc3ccccc3F)c(=O)c1n2C | < 100 | 
3 | Cc1cc(C)cc(NS(=O)(=O)c2cccn2-c2ncc(C(F)(F)F)cc2Cl)c1 | < 100 | 
4 | O=S(=O)(Nc1ccc(Cl)cc1)c1cccn1-c1ncc(C(F)(F)F)cc1Cl | < 100 | 
5 | O=S(=O)(Nc1ccccc1C(F)(F)F)c1cccn1-c1ncc(C(F)(F)F)cc1Cl | > 500 | 
6 | O=C(COc1ccc(-n2cnnn2)cc1)N1CCN(S(=O)(=O)c2ccc3ccccc3c2)CC1 | 100 to 500 | 
7 | COc1ccccc1N1CCN(C(=O)c2ccc(NS(=O)(=O)c3ccc4ccccc4c3)cc2)CC1 | > 500 | 
8 | Cc1cc(C)cc(NS(=O)(=O)c2ccc3c(c2)oc(=O)n3C)c1 | < 100 | 
9 | O=S(=O)(Nc1ccc2c(c1)OCCO2)c1cncn1-c1ccc(C(F)(F)F)cn1 | > 500 | 
10 | O=S(=O)(Nc1ccc(F)cc1)c1cncn1-c1ccc(C(F)(F)F)cn1 | > 500 | 
11 | Cc1cc(C)cc(NS(=O)(=O)c2cncn2-c2ncc(C(F)(F)F)cc2Cl)c1 | < 100 | 
12 | Cc1cc2oc(=O)n(C)c2cc1S(=O)(=O)Nc1cccc(Cl)c1 | 100 to 500 | 
13 | Cc1cc2oc(=O)n(C)c2cc1S(=O)(=O)Nc1ccc(F)c(Cl)c1 | < 100 | 
14 | Cc1cc2oc(=O)n(C)c2cc1S(=O)(=O)Nc1cc(F)cc(Cl)c1 | > 500 | 
15 | COc1ccccc1N1CCN(C(=O)c2ccc(NS(=O)(=O)c3cccc4cccnc34)cc2)CC1 | < 100 | 
16 | Cn1c(=O)oc2cc(S(=O)(=O)Nc3cccc(Cl)c3)ccc21 | < 100 | 
17 | O=S(=O)(Nc1ccc2c(c1)OCO2)c1cccn1-c1ncc(C(F)(F)F)cc1Cl | < 100 | 
18 | O=C(c1ccc(NS(=O)(=O)c2ccc(Cl)cc2)cc1)N1CCN(c2ncccn2)CC1 | > 500 | 
19 | Cc1cc(C)cc(NS(=O)(=O)c2ccnn2-c2ncc(C(F)(F)F)cc2Cl)c1 | < 100 | 
20 | Cc1cc(C)cc(NS(=O)(=O)c2cccn2-c2ncccn2)c1 | < 100 | 

Row | Compound | AC50 (PKM2; Table 1) [nM] | other results
21 | O=C(c1ccc(NS(=O)(=O)c2cccc3cccnc23)cc1)N1CCN(c2ncccn2)CC1 | 100 to 500 | 
22 | O=C(c1ccc(NS(=O)(=O)c2cccc3cccnc23)cc1)N1CCN(c2ccccc2)CC1 | < 100 | 
23 | COc1ccccc1N1CCN(C(=O)c2ccc(NS(=O)(=O)c3cccc4cccnc34)nc2)CC1 | < 100 | 
24 | COc1ccccc1N1CCN(C(=O)c2ccc(NS(=O)(=O)c3ccc4c(c3)OCCO4)cc2)CC1 | 100 to 500 | 
25 | COc1ccccc1N1CCCN(C(=O)c2ccc(NS(=O)(=O)c3cccc4cccnc34)cc2)CC1 | > 500 | 
26 | Cc1cccc(NS(=O)(=O)c2cncn2-c2ncc(C(F)(F)F)cc2Cl)c1 | < 100 | 
27 | COc1ccccc1N1CCN(C(=O)c2ccc(N(C)S(=O)(=O)c3cccc4cccnc34)cc2)CC1 | < 100 | 
28 | O=S(=O)(Nc1cc(F)cc(F)c1)c1cccn1-c1ncc(C(F)(F)F)cc1Cl | > 500 | 
29 | Cc1cc(NS(=O)(=O)c2cccn2-c2ncc(C(F)(F)F)cc2Cl)ccc1F | < 100 | 
30 | COc1ccccc1N1CCN(C(=O)c2ccc(NS(=O)(=O)c3ccc(Cl)c4nonc34)cc2)CC1 | > 500 | 
31 | O=S(=O)(Nc1ccc(F)c(Cl)c1)c1cncn1-c1cnccn1 | < 100 | 
32 | O=S(=O)(Nc1ccc(Cl)cc1)c1cncn1-c1cnccn1 | > 500 | 
33 | Cc1cc(NS(=O)(=O)c2cnn(-c3cnccn3)c2)ccc1F | 100 to 500 | 
34 | O=C(c1ccc(NS(=O)(=O)c2cccc3cccnc23)cc1)N1CCN(Cc2ccccc2)CC1 | < 100 | 
35 | O=C(c1ccc(NS(=O)(=O)c2cccc3cccnc23)cc1)N1CCN(Cc2ccccn2)CC1 | < 100 | 
36 | COc1cccc(CN2CCN(C(=O)c3ccc(NS(=O)(=O)c4cccc5cccnc45)cc3)CC2)c1 | < 100 | 
37 | O=C(c1ccc(NS(=O)(=O)c2cccc3cccnc23)cc1)N1CCN(Cc2cccc(Cl)c2)CC1 | < 100 | 
38 | O=C(c1ccc(NS(=O)(=O)c2cccc3cccnc23)cc1)N1CCN(Cc2ccc(Br)cc2)CC1 | < 100 | 
39 | O=C(c1ccc(NS(=O)(=O)c2cccc3cccnc23)cc1)N1CCN(Cc2ccc(F)cc2)CC1 | < 100 | 
40 | N#Cc1ccc(CN2CCN(C(=O)c3ccc(NS(=O)(=O)c4cccc5cccnc45)cc3)CC2)cc1 | < 100 | 

Row | Compound | AC50 (PKM2; Table 1) [nM] | other results
41 | CC(=O)c1ccc(CN2CCN(C(=O)c3ccc(NS(=O)(=O)c4cccc5cccnc45)cc3)CC2)cc1 | 100 to 500 | 
42 | N#Cc1ccccc1CN1CCN(C(=O)c2ccc(NS(=O)(=O)c3cccc4cccnc34)cc2)CC1 | < 100 | 
43 | O=C(c1ccc(NS(=O)(=O)c2cccc3cccnc23)cc1)N1CCN(Cc2ccc(Cl)cc2)CC1 | < 100 | 
44 | N#Cc1cccc(CN2CCN(C(=O)c3ccc(NS(=O)(=O)c4cccc5cccnc45)cc3)CC2)c1 | < 100 | 
45 | CC(=O)c1ccccc1CN1CCN(C(=O)c2ccc(NS(=O)(=O)c3cccc4cccnc34)cc2)CC1 | < 100 | 
46 | O=C(c1ccc(NS(=O)(=O)c2cccc3cccnc23)cc1)N1CCN(Cc2ccccc2Cl)CC1 | < 100 | 
47 | O=C(c1ccc(NS(=O)(=O)c2cccc3cccnc23)cc1)N1CCN(Cc2ccc(Cl)nc2)CC1 | < 100 | 
48 | O=C(c1ccc(NS(=O)(=O)c2cccc3cccnc23)cc1)N1CCN(Cc2cccnc2Cl)CC1 | < 100 | 
49 | COc1ccccc1CN1CCN(C(=O)c2ccc(NS(=O)(=O)c3cccc4cccnc34)cc2)CC1 | < 100 | 
50 | Nc1cccc(S(=O)(=O)N2CCCN(S(=O)(=O)c3cccc4c3OCCO4)CC2)c1 | < 100 | 
51 | COc1ccc(Cl)cc1S(=O)(=O)Nc1ccc2sc(=O)n(C)c2c1 |  | AC50 (PKM2; Table 2): 1000 to 10000 nM
52 | Cn1c(=O)oc2cc(NS(=O)(=O)c3cccs3)ccc21 |  | AC50 (PKM2; Table 2): 10000 to 50000 nM
53 | Cc1ccc(OCC(=O)N2CCN(S(=O)(=O)c3cc4oc(=O)n(C)c4cc3C)CC2)cc1 |  | AC50 (PKM2; Table 2): 1000 to 10000 nM
54 | CC(=O)O[C@@]12CO[C@@H]1C[C@H](O)[C@@]1(C)C(=O)[C@H](O)C3=C(C)[C@@H](OC(=O)[C@H](O)[C@@H](NC(=O)OC(C)(C)C)c4ccccc4)C[C@@](O)([C@@H](OC(=O)c4ccccc4)[C@H]21)C3(C)C [docetaxel] |  | potency of cytotoxic agent in BME compared with RPMI (A549 cells): decreased potency
55 | COc1cccc2c1C(=O)c1c(O)c3c(c(O)c1C2=O)C[C@@](O)(C(=O)CO)C[C@@H]3O[C@H]1C[C@H](N)[C@H](O)[C@H](C)O1 [doxorubicin] |  | potency of cytotoxic agent in BME compared with RPMI (A549 cells): decreased potency
56 | COc1ccc(Cl)cc1S(=O)(=O)Nc1ccc2oc(=O)n(C)c2c1 [drawing 74] |  | AC50 (PKM2; Table 2): > 100000 nM
57 | COc1ccc(Cl)cc1S(=O)(=O)Nc1ccc2oc(=O)n(C)c2c1 [drawing 91] |  | AC50 (PKM2; Table 2): < 1000 nM
58 | CC[C@]1(O)C[C@@H]2CN(CCc3c([nH]c4ccccc34)[C@@](C(=O)OC)(c3cc4c(cc3OC)N(C)[C@H]3[C@@](O)(C(=O)OC)[C@H](OC(C)=O)[C@]5(CC)C=CCN6CC[C@]43[C@@H]65)C2)C1 [vinblastine] |  | potency of cytotoxic agent in BME compared with RPMI (A549 cells): decreased potency
